Patent US20250114355A1, “TREATING LIVER DISEASE” (Mayo Foundation for Medical Education and Research, priority 2021, published 2025)
pEC50: −log10 of the molar value. “Also recorded” adds a separate entry of the source.

How the values were obtained:
HHSEC = test: Colorimetric (XTT) cell viability assay in HHSEC; format: cell-based, human; conditions: for toxicity to HHSEC (ranking): XTT viability, FIG. 33B
Procedure: Cell viability assay was performed with a XTT Viability Kit (Cell Signaling Technology, 9095) according to the manufacturer's instructions. HHSEC were seeded in three black-walled 96-well plates (Corning, 3603) with cell density≥12,000 cells per well.
The cells were incubated for 24 hours at 37° C., 5% CO2 in endothelial growth media (Cell Application Inc, 211-500). After 24 hours, old media was removed and 100 μL of fresh media was added to each well. Drugs were dissolved in DMSO; a 1.1 mM stock solution was made by diluting drug in DPBS (11% DMSO, v/v). The 1.1 mM stock was serially diluted with 3-fold dilutions. DMSO volumes were balanced to 11% DMSO (v/v). A multichannel pipette was used to add 10 μL of drug or control stocks simultaneously (i.e., one column per drug per plate). The final maximum concentration of drug was 100 μM. Plates were incubated for 21 hours at 37° C., 5% CO2. After incubation, 50 μL of XTT solution were added to each well and incubated for three hours to maximize differences in signal. Absorbance was measured at 462 and 620 nm with a spectrophotometer (Molecular Devices, Spectramax Plus 384). Background absorbance at 620 nm was subtracted from maximum peak at 462 nm.

[1] = system: CXCL1 and CCL2 mRNA expression; test: Murine LPS model of mild liver inflammation, qPCR of CXCL1 and CCL2 mRNA; format: in vivo; conditions: mice, drug given one hour before LPS; for CCL2 mRNA expression versus LPS control: several doses
Procedure: BRD4 inhibitors were introduced to murine models of mild liver inflammation induced by LPS. The BRD4 inhibitors acted as prophylactic agents to prevent the increased expression of CXCL1 and CCL2. […] RNA extraction was performed with RNeasy kit (Qiagen 74104) from cells and mouse tissue according to the manufacturer's instructions. RNA Quantification was performed with spectrophotometry (NanoDrop, Thermo Scientific). 500 ng of mRNA was used for cDNA synthesis with dNTP and oligo primer using SuperScript™ III (Invitrogen 18080-093) for reverse transcription per the manufacturer's protocol. Real-Time PCR was performed from cDNA using IQ SYBR Green Mix (Biorad 1725121) on the 7500 Real-Time PCR system (Applied Biosystems), according to the manufacturer's instructions. Amplification of GAPDH and B-actin was performed for respective samples as internal controls. Each experiment was done in duplicates.

BRD4 BD1 = BRD4 BD1 (Homo sapiens, UniProt O60885); test: BRD4 BD1 affinity (IC50); format: binding; conditions: ratio of BD2 and BD1 IC50
[2] = system: alcohol/LPS-induced liver inflammation; test: Multiple alcohol binge with LPS mouse model; format: in vivo, mice; conditions: UMN627 22 mg/kg IP
Procedure: mRNA levels were quantified by real-time reverse transcription PCR. RNA extraction was performed with RNeasy kit (Qiagen 74104) from cells and mouse tissue according to the manufacturer's instructions. RNA Quantification was performed with spectrophotometry (NanoDrop, Thermo Scientific). 500 ng of mRNA was used for cDNA synthesis with dNTP and oligo primer using SuperScript™ III (Invitrogen 18080-093) for reverse transcription per the manufacturer's protocol. Real-Time PCR was performed from cDNA using IQ SYBR Green Mix (Biorad 1725121) on the 7500 Real-Time PCR system (Applied Biosystems), according to the manufacturer's instructions. Amplification of GAPDH and B-actin was performed for respective samples as internal controls. Each experiment was done in duplicates.
Right lobes of all mouse livers were fixed in 10% formalin and embedded in paraffin and cut into 5 μm sections. Slides were deparaffinized and underwent antigen retrieval (IHC-Tek IW-1000). Slides were treated with hydrogen peroxide for 10 minutes before blocking in 5% bovine serum albumin in phosphate-buffered saline (PBS) for 1 hour at room temperature. Samples were then incubated overnight at 4° C. with rabbit anti-MPO antibody (Abcam ab9535) at 1:25. Slides were then blocked with Avidin and Biotin (Vector SP-2001) for 15 minutes each before treatment with biotinylated secondary antibody horse anti-Rabbit (Vector BA-1100) at 1:200 for 1 hour at room temperature. Slides were then treated with
ABC reagent (Vector PK-7100) for 30 minutes before treatment with DAB reagent (Vector SK-4100) for 5 minutes. Counterstain was performed with hematoxylin stain and dehydrated in ethanol and xylene. Images were acquired using a Zeiss LSM 780 confocal microscope at 10× magnification, 5 images per slide (Carl Zeiss MicroImaging, Jena, Germany).
Liver sections from the left lobe of all mouse livers were embedded in OCT (Sakura 4583) and flash frozen. Frozen tissue was sectioned into 10 μm slices, fixed in 10% formalin and stained with BODIPY 493/503 (Invitrogen D3922) or Oil-red (Sigma 00625) and counterstained with 4′,6-diamidino-2-phenylindole (DAPI) (Sigma D9542) or hematoxylin, respectively. Representative images were obtained with microscopy in one session under same settings (Carl Zeiss MicroImaging, Jena, Germany), 3 images per slide. The proportion of tissue stained with BODIPY, or Oil-red content was quantified with ImageJ macro commands for standardization. For BODIPY staining, FITC channel intensity was measured across the whole image, and average intensities of images were normalized to the average of all control samples. For Oil Red staining, red staining was quantified above a pre-selected threshold, and average intensities of images were normalized to the average of all control samples. […]

[3] = system: CXCL chemokine expression in LSECs; test: CXCL chemokine expression by qPCR in LSECs with or without TNFα stimulation; format: cell-based, human; conditions: LSECs pretreated with inhibitor
Procedure: LSECs were thawed and cultured according to standard cell culture conditions and according to manufacture instruction (ScienCell). Briefly, LSECs are plated at low confluency and cultured in Endothelial cell medium (Cell 211-500). Fresh medium changed every other day and cells are split when close to confluency. For TNFα stimulation experiments, low passage cells were plated at 70% confluency and cultured overnight. Serum starvation was performed by changing cells to low-serum medium (0.5% FBS in basal endothelial medium (Lonza CC-3121)) for 2 hours. Human TNFα at concentration 10 ng/mL was added to low-serum medium and incubated with cells for 90 minutes before cells were collected and assayed for downstream analysis. […] Inhibitors were added at concentrations indicated to low-serum medium, and cells were incubated in inhibitor containing medium for 2 hours. After inhibitor treatment, medium change was performed with TNFα (Peprotech 300-01A) at 10 ng/ml or control low-serum medium for 90 minutes incubation. LSECs were then collected for analysis.
mRNA levels were quantified by real-time reverse transcription PCR. RNA extraction was performed with RNeasy kit (Qiagen 74104) from cells and mouse tissue according to the manufacturer's instructions. RNA Quantification was performed with spectrophotometry (NanoDrop, Thermo Scientific). […]

[4] = among treatment groups, 22 mg/kg

SMILES: Cc1nnn(C2CCN(CCN(C)C)CC2)c1-c1cccc(Oc2cc(Br)ccc2Br)n1 [AC6026]
- toxicity to HHSEC (ranking) (HHSEC): least toxic

SMILES: Cc1cc(C)cc(Oc2cccc(-c3c(C)nnn3C3CCNCC3)n2)c1 [AC4118]
- IC50 for chemokine expression (chemokine not specified) [1]: < 5 mg/kg
- CCL2 mRNA expression versus LPS control [1]: significantly reduced CCL2 expression at higher concentrations compared to UMN627
- toxicity to HHSEC (ranking) (HHSEC): least toxic

SMILES: Cc1cc(C)cc(Nc2nccc(-c3c(-c4ccc(C(F)(F)F)cc4)ncn3C3CCN(CCN)CC3)n2)c1 [UMN627]
- affinity for BRD4 BD1 over BRD4 BD2 (BRD4 BD1): over 20 fold
- liver neutrophil infiltration (MPO IHC) ([2]; alcohol binges/LPS mice): Attenuated
- liver CXCL chemokine (and Ly6g) expression by qPCR ([2]; alcohol binges/LPS mice, 22 mg/kg): attenuated
- serum ALT levels [2, 4]: no significant changes; also recorded: did not show statistical difference
- steatosis (BODIPY 493/503 staining) [2, 4]: no significant changes; also recorded: not significantly correlated
- IC50 for CCL2 mRNA expression [1]: 8.8 mg/kg
- IC50 for CXCL1 mRNA expression [1]: 10.9 mg/kg
- CCL2 mRNA expression versus LPS control [1]: No significant differences were found
- CXCL chemokine expression in LSECs [3]: showed efficacy in CXCL suppression

SMILES: CCc1cc(C)cc(Oc2nccc(-c3c(-c4ccc(C(F)(F)F)cc4)ncn3[C@H]3CCN(CCN(C)C)C3)n2)c1 [9-209]
- toxicity to HHSEC (ranking) (HHSEC): least toxic

SMILES: CCc1cc(C)cc(Oc2nccc(-c3c(-c4ccc(C(F)(F)F)cc4)ncn3C3CCN(CCN(C)C)CC3)n2)c1 [9-73]
- toxicity to HHSEC (ranking) (HHSEC): least toxic

SMILES: Cc1cc(C)cc(Nc2nccc(-c3c(-c4ccc(C(F)(F)F)cc4)ncn3C3CCN(CCCN(C)CCNC(=O)CN4CCC(n5nnc(C)c5-c5cccc(Oc6cc(C)cc(C)c6)n5)CC4)CC3)n2)c1 [9-169]
- pEC50 (HHSEC; Homo sapiens, read-out: EC50, concentration that causes 50% toxicity to HHSEC, XTT, 21 + 3 hours incubation): > 5.40

SMILES: Cc1cc(C)cc(Oc2cccc(-c3c(C)nnn3C3CCN(CCN(C)C)CC3)n2)c1 [AC6027]
- toxicity to HHSEC (ranking) (HHSEC): least toxic
